The text below walks through data of article PMC6094102 (Proceedings of the National Academy of Sciences of the …, 2018).

The target in data set [1] is T1, DYRK2 (Homo sapiens, UniProt Q92630).
T1 sequence (Q92630 1-601): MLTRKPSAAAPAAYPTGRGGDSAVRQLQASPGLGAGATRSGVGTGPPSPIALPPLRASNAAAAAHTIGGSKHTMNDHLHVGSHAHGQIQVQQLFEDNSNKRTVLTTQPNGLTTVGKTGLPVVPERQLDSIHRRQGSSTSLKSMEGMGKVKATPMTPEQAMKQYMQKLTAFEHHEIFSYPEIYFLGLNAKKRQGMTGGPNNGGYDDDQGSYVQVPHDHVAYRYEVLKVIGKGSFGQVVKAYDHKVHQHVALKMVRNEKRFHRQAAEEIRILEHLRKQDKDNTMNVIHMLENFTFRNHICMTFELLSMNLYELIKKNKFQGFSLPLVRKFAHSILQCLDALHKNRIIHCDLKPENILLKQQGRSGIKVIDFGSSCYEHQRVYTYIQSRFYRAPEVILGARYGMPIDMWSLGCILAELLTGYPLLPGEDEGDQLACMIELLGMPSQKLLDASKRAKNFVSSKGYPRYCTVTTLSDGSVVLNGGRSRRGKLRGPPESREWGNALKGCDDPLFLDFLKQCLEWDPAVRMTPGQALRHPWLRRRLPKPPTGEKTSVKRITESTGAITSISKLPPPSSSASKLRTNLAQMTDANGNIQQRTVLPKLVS
Kind of data set: DYRK2 kinase assay, IC50 determination. Format: biochemical. The following applies: 0.025 mM, 0.1 mM or 2 mM ATP.

The next data set deals with 26S proteasome. In words: Affinity-purified 26S proteasome, bodipy-casein degradation in vitro. Format: biochemical, human. The following applies: 10 μM.
Data set [2] has as its system 26S proteasome in MDA-MB-231 cells. In words: Proteasome activity in total cell lysates, Suc-LLVY-AMC. The class given is cell-based. The following applies: 1 h.
For another data set, the target named is T2, DYRK3 (Homo sapiens, UniProt O43781).
T2 sequence (O43781 1-588): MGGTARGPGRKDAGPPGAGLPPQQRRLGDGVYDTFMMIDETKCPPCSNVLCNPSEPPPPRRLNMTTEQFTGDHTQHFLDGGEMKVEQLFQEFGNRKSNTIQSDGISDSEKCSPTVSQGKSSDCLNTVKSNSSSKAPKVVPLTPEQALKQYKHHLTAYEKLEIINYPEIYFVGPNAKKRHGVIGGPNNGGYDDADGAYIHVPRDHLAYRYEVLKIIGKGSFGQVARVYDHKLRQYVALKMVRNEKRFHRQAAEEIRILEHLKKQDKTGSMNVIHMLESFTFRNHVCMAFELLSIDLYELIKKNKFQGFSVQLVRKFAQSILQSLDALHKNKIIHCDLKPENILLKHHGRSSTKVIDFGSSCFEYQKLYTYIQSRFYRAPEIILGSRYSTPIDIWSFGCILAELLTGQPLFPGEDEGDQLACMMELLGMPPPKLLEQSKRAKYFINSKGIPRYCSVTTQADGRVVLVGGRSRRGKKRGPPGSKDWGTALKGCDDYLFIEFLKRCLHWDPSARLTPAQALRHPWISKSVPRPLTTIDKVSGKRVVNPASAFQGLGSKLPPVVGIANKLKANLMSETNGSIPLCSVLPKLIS
Kind of data set: DYRK3 kinase assay, IC50 determination.

Data set [3] relates to MDA-MB-231 cells. In words: Matrigel transwell invasion assay. As to conditions: MDA-MB-231, 5 μM, 24 h. Format: cell-based.
Data set [4] has as its system MDA-MB-231 xenograft tumors. In words: MDA-MB-231 tumor xenograft in NSG mice. The class given is in vivo.
The target in data set [5] is T3, GSK3β (Homo sapiens, UniProt P49841). Kind of data set: GSK3β kinase assay, IC50 determination. Format: biochemical.
T3 sequence (P49841 whole entry): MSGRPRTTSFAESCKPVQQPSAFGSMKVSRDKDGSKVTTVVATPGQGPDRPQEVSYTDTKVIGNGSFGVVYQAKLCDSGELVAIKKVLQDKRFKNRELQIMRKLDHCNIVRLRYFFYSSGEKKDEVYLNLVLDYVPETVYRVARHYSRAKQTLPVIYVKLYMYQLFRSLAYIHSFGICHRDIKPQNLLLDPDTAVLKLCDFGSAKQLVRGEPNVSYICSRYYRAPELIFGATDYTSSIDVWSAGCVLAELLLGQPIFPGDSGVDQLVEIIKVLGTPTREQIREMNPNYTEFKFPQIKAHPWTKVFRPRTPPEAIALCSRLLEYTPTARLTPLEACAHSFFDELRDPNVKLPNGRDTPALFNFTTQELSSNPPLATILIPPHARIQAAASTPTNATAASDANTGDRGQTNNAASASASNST
The subject of data set [6] is MDA-MB-231 cells. In words: Cell proliferation by cell counting. The class given is cell-based. The following applies: 3 µM.
The subject of data set [7] is UBL-YFP-PEST in HEK293T cells. In words: UBL-YFP-PEST reporter degradation. The following applies: 10 μM, 1 h pretreatment, CHX 2 h. Format: cell-based.
The next data set has as its system 5TGM1-GFP cells. In words: Cell proliferation by cell counting. The class given is cell-based. As to conditions: 1 µM, 5 days.
Data set [8] concerns 26S proteasome in HaCaT cells. In words: Proteasome activity in total cell lysates, Suc-LLVY-AMC. The class given is cell-based. The following applies: 10 μM, 1 h.
Data set [9] concerns the target T3, GSK3β. As to conditions: read-out: IC50 GSK3β; cited from earlier work.
Data set [10] deals with multiple myeloma cell lines. Kind of data set: Caspase 3/7 activity. Format: cell-based. As to conditions: multiple myeloma cell lysates, 16 h.
Data set [11] deals with T1, DYRK2. Kind of data set: pT25 RPT3 phosphorylation in HEK293T cells stably expressing FLAG-DYRK2. The class given is cell-based.
The subject of the next data set is MM.1S.BR cells. In words: Cell viability of bortezomib-resistant myeloma cells. Format: cell-based.
The test system of another data set is Hs578T cells. In words: Matrigel transwell invasion assay. The following applies: 5 μM, 24 h. The class given is cell-based.
Another data set concerns RPMI8226.BR cells. In words: Cell viability of bortezomib-resistant myeloma cells. Format: cell-based.

Read-outs that look alike come from different tables or passages of the source. Some results are limits rather than exact numbers.

As for `COc1cc(/C=C/C(=O)CC(=O)/C=C/c2ccc(O)c(OC)c2)ccc1O` [curcumin], the “effect of higher concentrations of ATP on the IC50 for DYRK2” value at DYRK2 [1] is “modest effect”. The “effect on activity of affinity-purified proteasome to degrade BODIPY-casein” value with 26S proteasome is on record as “no significant effect”. For the same compound, the “proteasome activity with curcumin treatment in DYRK2-null cells” value is listed as “no further decrease of proteasome activity” in data set [2] (DYRK2-null MDA-MB-231, 10 μM) and “no further decrease of proteasome activity” in data set [8] (DYRK2-null HaCaT). For the same compound, the “decrease of proteasome activity toward Suc-LLVY-AMC” value in data set [2] (MDA-MB-231 parental, 10 μM) is 25–40%; in [8] (HaCaT parental) it was 25–40%. Further, the 50% inhibitory concentration (IC50) is 20 nM on DYRK3, over 3000 nM on GSK3β [5] and 66 nM on GSK3β [9]. The “cell invasion, 3D matrigel invasion assay” value with MDA-MB-231 cells [3] and with Hs578T cells was “largely blocked” each time. Also, the “Ki-67 staining in xenograft tumors” value in [4] (300 mg/kg i.p.) is “greatly attenuated”. Also, the tumor burden entry in [4] (300 mg/kg i.p. every alternate day, after 2 wk of treatment, NSG mice) is recorded as “significantly reduced tumor burden”. Besides, in [4] (300 mg/kg i.p., whole-tumor lysates, Suc-LLVY-AMC), the “reduction of proteasome activity in curcumin-treated mouse tumors” value is recorded as 30%. Besides, in the data set on MDA-MB-231 cells [6] (MDA-MB-231 DYRK2 KO), the “cell proliferation in DYRK2 KO cells” value is “did not exhibit a further decrease in cell proliferation”. Further, the “rate of cell proliferation compared with DMSO-treated controls” value was “markedly slower rate of cell proliferation” in the data set with MDA-MB-231 cells [6] (MDA-MB-231 WT, 5 days) and “markedly slower rate of cell proliferation” in the data set with 5TGM1-GFP cells. In [7], the “UBL-YFP-PEST reporter protein degradation” value is given as “stabilized”. Also, the caspase3/7 activity result in data set [10] is given as “significant increase”. Also, on DYRK2 [11], the “concentration at which curcumin inhibits DYRK2 in cells” value lay within 1 to 10 µM. Also, the “inhibitor concentration of maximal suppression of pT25 RPT3 phosphorylation” value against DYRK2 [11] (0.5 h) is on record as 3–10 μM. Further, the “cytotoxicity versus bortezomib-sensitive WT counterpart” value in the data set on MM.1S.BR cells (MM.1S.BR, 10 μM, 24 h) is on record as “comparable cytotoxicity”; in the data set on RPMI8226.BR cells (RPMI8226.BR, 10 μM, 24 h), “comparable cytotoxicity”.

As for `CC(C)C[C@H](NC(=O)[C@H](Cc1ccccc1)NC(=O)c1cnccn1)B(O)O` [bortezomib], the “resistance to bortezomib relative to bortezomib-sensitive cells” value with MM.1S.BR cells (MM.1S.BR vs MM.1S) and with RPMI8226.BR cells (RPMI8226.BR vs RPMI8226) was 20- to 100 fold each time.

For orientation: IC50 means the point on the concentration scale where inhibition reaches its midpoint.
